From patent publication US20230416248A1, “COMPOUNDS AND USES THEREOF” (Foghorn Therapeutics Inc., priority 2020, published 2023)
Where two headings read alike, the source gives them in different places.

What was measured:
[1] = biological target: T1, BRM (Homo sapiens, UniProt P51531); assay: ATPase catalytic activity of BRM, ADP-Glo in vitro biochemical assay; conditions: for IC50: 30 nM BRM, 400 μM ATP; for Ratio* (BRG1 IC50 (μM) divided by BRM IC50 (μM)): selectivity ratio BRG1 IC50 / BRM IC50
T1 construct: made in house; host or cells: High Five insect cells
Outline: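 Recombinant BRM (30 nM) hydrolysed 400 μM ATP with 20 nM salmon sperm DNA in pH 8 Tris buffer containing 20 mM MgCl2, 50 mM NaCl, 0.1% Tween-20 and 1 mM DTT, 1 h at room temperature. ADP formed was quantified by ADP-Glo luminescence.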

[2] = biological target: T2, BRG-1 (Homo sapiens, UniProt P51532); assay: ATPase catalytic activity of BRG-1, ADP-Glo in vitro biochemical assay; conditions: 30 nM BRG-1, 400 μM ATP, read-out: BRG1 IC50
T2 construct: made in house; host or cells: High Five insect cells
Outline: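 Biochemical ADP-Glo assay, BRG-1. Post-reaction: ATP depletion reagent, 40 min RT; ADP→ATP conversion/detection reagent, 60 min RT; luminescence read on plate luminometer.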

[3] = ATPase catalytic activity, ADP-Glo

T1 sequence (P51531 whole entry): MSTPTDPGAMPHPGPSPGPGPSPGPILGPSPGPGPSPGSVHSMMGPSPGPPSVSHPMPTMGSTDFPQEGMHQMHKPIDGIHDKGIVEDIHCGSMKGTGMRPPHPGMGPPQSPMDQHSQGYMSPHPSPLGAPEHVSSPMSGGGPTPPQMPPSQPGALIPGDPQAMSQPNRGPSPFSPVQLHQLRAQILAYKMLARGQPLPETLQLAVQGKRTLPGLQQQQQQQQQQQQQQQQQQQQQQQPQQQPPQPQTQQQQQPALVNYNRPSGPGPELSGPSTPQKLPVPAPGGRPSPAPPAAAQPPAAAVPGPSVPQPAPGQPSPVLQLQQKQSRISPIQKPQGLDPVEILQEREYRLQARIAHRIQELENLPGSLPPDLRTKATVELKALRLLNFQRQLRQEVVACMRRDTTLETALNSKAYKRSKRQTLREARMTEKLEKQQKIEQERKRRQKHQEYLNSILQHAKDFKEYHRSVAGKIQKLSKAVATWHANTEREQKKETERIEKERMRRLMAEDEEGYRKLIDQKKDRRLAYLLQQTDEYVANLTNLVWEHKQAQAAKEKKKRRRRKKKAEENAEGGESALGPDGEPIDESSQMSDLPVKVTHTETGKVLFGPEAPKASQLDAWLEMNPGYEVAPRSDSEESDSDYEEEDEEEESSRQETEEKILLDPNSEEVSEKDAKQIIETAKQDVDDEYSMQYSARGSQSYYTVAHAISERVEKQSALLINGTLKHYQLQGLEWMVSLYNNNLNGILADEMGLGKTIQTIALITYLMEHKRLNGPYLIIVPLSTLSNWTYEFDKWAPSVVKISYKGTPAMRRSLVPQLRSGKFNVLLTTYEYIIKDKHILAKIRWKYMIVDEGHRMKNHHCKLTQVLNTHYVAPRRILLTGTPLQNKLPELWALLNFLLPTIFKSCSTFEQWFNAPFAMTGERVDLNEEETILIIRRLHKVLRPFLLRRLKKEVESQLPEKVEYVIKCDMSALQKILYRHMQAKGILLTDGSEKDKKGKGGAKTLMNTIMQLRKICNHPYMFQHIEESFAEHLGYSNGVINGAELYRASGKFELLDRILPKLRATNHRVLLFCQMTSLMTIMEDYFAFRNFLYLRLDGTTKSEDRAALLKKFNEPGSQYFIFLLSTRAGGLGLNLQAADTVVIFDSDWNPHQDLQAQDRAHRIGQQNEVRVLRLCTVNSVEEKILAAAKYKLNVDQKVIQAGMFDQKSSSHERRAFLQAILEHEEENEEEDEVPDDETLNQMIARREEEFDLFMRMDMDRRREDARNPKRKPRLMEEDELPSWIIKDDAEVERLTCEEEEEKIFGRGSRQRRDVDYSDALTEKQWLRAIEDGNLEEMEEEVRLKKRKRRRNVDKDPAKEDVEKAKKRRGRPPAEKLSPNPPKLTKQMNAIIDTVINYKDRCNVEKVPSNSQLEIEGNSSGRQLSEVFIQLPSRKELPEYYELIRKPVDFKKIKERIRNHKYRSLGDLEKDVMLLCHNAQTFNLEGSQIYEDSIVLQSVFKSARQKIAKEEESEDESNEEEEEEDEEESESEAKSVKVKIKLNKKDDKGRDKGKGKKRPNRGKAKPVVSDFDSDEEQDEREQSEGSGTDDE
T2 sequence (P51532 whole entry): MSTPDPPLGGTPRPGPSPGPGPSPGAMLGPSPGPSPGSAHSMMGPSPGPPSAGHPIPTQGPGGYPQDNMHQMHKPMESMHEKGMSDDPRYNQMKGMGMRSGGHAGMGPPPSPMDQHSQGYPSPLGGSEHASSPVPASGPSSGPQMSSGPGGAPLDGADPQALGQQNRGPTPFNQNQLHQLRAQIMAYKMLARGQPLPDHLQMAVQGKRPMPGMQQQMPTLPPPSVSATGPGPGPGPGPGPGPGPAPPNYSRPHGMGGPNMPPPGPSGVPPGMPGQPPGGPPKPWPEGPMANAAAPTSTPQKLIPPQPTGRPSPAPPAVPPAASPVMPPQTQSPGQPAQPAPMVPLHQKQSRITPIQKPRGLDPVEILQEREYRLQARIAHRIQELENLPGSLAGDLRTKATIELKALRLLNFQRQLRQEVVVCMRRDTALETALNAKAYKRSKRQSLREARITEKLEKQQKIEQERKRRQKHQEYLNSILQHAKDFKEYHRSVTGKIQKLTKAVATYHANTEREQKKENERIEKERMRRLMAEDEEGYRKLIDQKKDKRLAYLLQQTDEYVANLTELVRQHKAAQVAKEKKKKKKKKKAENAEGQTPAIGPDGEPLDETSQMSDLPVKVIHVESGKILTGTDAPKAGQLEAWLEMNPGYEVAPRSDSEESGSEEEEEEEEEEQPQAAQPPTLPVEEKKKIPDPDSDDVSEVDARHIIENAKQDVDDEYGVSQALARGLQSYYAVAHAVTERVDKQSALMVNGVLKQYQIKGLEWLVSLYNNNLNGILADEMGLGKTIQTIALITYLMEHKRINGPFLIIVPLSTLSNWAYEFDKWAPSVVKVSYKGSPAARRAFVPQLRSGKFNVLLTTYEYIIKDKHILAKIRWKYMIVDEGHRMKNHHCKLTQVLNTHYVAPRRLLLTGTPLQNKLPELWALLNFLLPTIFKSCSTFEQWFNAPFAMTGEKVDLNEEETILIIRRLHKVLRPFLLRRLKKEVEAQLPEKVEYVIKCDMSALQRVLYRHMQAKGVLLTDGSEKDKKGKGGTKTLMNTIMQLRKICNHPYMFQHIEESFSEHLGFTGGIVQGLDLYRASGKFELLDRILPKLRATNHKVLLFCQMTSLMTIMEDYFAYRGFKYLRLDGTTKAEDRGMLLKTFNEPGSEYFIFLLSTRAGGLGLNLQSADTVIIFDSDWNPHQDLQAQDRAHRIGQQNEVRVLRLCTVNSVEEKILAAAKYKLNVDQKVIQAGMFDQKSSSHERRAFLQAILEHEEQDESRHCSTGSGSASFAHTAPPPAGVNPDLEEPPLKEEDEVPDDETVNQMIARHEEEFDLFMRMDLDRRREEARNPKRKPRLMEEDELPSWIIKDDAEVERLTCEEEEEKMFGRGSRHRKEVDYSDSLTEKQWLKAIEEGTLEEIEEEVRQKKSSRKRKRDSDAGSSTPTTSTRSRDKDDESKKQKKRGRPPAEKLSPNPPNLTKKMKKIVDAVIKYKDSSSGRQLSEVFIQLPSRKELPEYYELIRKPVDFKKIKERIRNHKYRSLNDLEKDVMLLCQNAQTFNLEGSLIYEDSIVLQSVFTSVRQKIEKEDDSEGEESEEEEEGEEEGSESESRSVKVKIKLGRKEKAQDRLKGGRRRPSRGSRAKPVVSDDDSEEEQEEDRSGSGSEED

SMILES	IC50 [1, 3] [µM]	Ratio* ([1]; ratio of BRG1 IC50 to BRM IC50)	IC50 [2, 3] [µM]	IC50 ([1]; ADP-Glo ATPase assay) [µM]	Ratio* ([1]; ratio BRG1 IC50 / BRM IC50)	IC50 ([2]; ADP-Glo ATPase assay) [µM]	Ratio* (BRG1 IC50 (μM) divided by BRM IC50 (μM)) [1]
C[C@@H](C1COC1)N(C)c1cccc(-c2ccc3cnc(CNC(=O)c4ccc5c(c4)S(=O)(=O)CCOC5)cc3n2)n1 [Compound 471]	0.167	5.29	0.884	–	–	–	–
C[C@H]1COCc2ccc(C(=O)NCc3cc4nc(-c5cccc(C6CC6)n5)cnc4cn3)cc2S1(=O)=O [Compound 443]	0.0347	36.53	1.27	–	–	–	–
CN1CCN(c2cccc(-c3ccc4cnc(CNC(=O)c5ccc6c(c5)S(=O)(=O)CCOC6)cc4n3)n2)CC1 [Compound 144]	–	–	–	0.147	–	1.35	9.21
CN[C@H]1CCN(c2cccc(-c3ccc4cnc(CNC(=O)c5ccc6c(c5)S(=O)(=O)CCOC6)cc4n3)n2)CC1(F)F [Compound 67]	–	–	–	0.0894	–	0.586	6.55
C[C@H]1CN(c2cccc(-c3ccc4cnc(CNC(=O)c5ccc(Cl)c(S(C)(=O)=O)c5)cc4n3)n2)C[C@H](C)O1 [Compound 179]	–	–	–	0.0333	–	0.383	11.49
C[C@@H]1C=C(c2cccc(-c3ccc4cnc(CNC(=O)c5ccc6c(c5)S(=O)(=O)CCOC6)cc4n3)n2)C[C@H](C)O1 [Compound 45]	–	–	–	0.0051	–	0.0198	3.87
O=C(NCc1cc2nc(N3CCOc4cc(C5CC5)cnc43)ccc2cn1)c1ccc2c(c1)S(=O)(=O)CCOC2 [Compound 503]	0.0058	12.62	0.0737	–	–	–	–
CN1CCc2ccc(-c3ccc4cnc(CNC(=O)c5ccc6c(c5)S(=O)(=O)CCOC6)cc4n3)nc21 [Compound 190]	–	–	–	0.0459	–	0.394	8.57
C[C@H]1COCCN1c1cccc(-c2ccc3cnc(CNC(=O)c4ccc5c(c4)S(=O)(=O)CCOC5)cc3n2)n1 [Compound 178]	–	–	–	0.18	–	1.39	7.72
COC[C@@H](C)Nc1cccc(-c2ccc3cnc(CNC(=O)c4ccc(C(F)F)c(S(C)(=O)=O)c4)cc3n2)n1 [Compound 60]	–	–	–	0.789	–	5	6.34
COC[C@H]1C[C@@H](N(C)c2cccc(-c3ccc4cnc(CNC(=O)c5ccc6c(c5)S(=O)(=O)CCOC6)cc4n3)n2)C1 [Compound 436]	0.015	15.10	0.226	–	–	–	–
C[C@@H]1[C@@H](c2cccc(-c3ccc4cnc(CNC(=O)c5ccc6c(c5)S(=O)(=O)CCOC6)cc4n3)n2)C1(F)F [Compound 173]	–	–	–	0.108	–	1.49	13.78
C[C@H]1COCc2ccc(C(=O)NCc3cc4nc(-c5cccc(OC(F)(F)F)n5)ccc4cn3)cc2S1(=O)=O [Compound 388]	0.0184	31.86	0.587	–	–	–	–
Cc1ccc(C(=O)NCc2cc3nc(-c4cccc(N5C[C@@H](C)O[C@@H](C)C5)n4)ccc3cn2)cc1S(C)(=O)=O [Compound 195]	–	–	–	0.0037	–	0.0313	8.49
Cc1cnc2c(c1)CCCN2c1ccc2cnc(CNC(=O)c3cc(F)c4c(c3)S(=O)(=O)CCOC4)cc2n1 [Compound 395]	0.0041	14.47	0.0586	–	–	–	–
CC1COCc2ccc(C(=O)NCc3cc4nc(-c5cccc(N6CCC6)n5)ccc4cn3)cc2S1(=O)=O (single isomer, unassigned) [Compound 197]	–	–	–	0.0193	–	0.244	12.64
O=C(NCc1cc2nc(-c3cccc(N4CCCC(F)(F)C4)n3)ccc2cn1)c1ccc2c(c1)S(=O)(=O)CCOC2 [Compound 308]	–	–	–	0.0054	–	0.0158	2.91
CO[C@@H](C)c1ccc2c(n1)N(c1ccc3cnc(CNC(=O)c4ccc5c(c4)S(=O)(=O)CCOC5)cc3n1)CCC2 [Compound 561]	0.0672	12.50	0.839	–	–	–	–
C[C@@H]1CN(c2cccc(-c3ccc4cnc(CNC(=O)c5cnc(C(F)F)c(S(C)(=O)=O)c5)cc4n3)n2)C[C@H](C)O1 [Compound 132]	–	–	–	0.0125	–	0.204	16.30
O=C(NCc1cc2nc(N3CCCc4cc(C(F)F)cnc43)ccc2cn1)c1ccc2c(c1)S(=O)(=O)CCOC2 [Compound 473]	0.0109	13.46	0.147	–	–	–	–
CC1CCc2ccc(-c3ccc4cnc(CNC(=O)c5ccc6c(c5)S(=O)(=O)CCOC6)cc4n3)nc2N1C (stereo not drawn) [Compound 414]	0.0233	8.27	0.193	–	–	–	–
O=C(NCc1cc2nc(-c3cccc(C4CC(F)(F)C4)n3)ccc2cn1)c1ccc2c(c1)S(=O)(=O)CCOC2 [Compound 171]	–	–	–	0.0524	–	0.499	9.52

More lines, now with the values ahead:

IC50 [1, 3] [µM]	Ratio* ([1]; ratio of BRG1 IC50 to BRM IC50)	IC50 [2, 3] [µM]	IC50 ([1]; ADP-Glo ATPase assay) [µM]	Ratio* ([1]; ratio BRG1 IC50 / BRM IC50)	IC50 ([2]; ADP-Glo ATPase assay) [µM]	Ratio* (BRG1 IC50 (μM) divided by BRM IC50 (μM)) [1]	SMILES
–	–	–	0.0063	13.67	0.0862	–	Cc1cnc2c(c1)C1(CCN2c2ccc3cnc(CNC(=O)c4ccc5c(c4)S(=O)(=O)CCOC5)cc3n2)CC1 [Compound 734]
0.0122	10.50	0.128	–	–	–	–	Cc1cnc2c(c1)CCN2c1ccc2cnc(CNC(=O)c3ccc4c(c3)S(=O)(=O)CCOC4)cc2n1 [Compound 656]
0.0082	54.03	0.442	–	–	–	–	O=C(NCc1cc2nc(N3CCOc4ccc(C5CC5)nc43)ccc2cn1)c1ccc2c(c1)S(=O)(=O)CCOC2 [Compound 616]
0.0055	14.77	0.0819	–	–	–	–	COCCOc1ccc2c(c1)N(c1ccc3cnc(CNC(=O)c4ccc5c(c4)S(=O)(=O)CCOC5)cc3n1)CCC2 [Compound 586]
0.022	10.98	0.242	–	–	–	–	O=C(NCc1cc2nc(N3CCCc4cc(F)cnc43)ccc2cn1)c1ccc2c(c1)S(=O)(=O)CCOC2 [Compound 591]
–	–	–	0.0562	8.61	0.484	–	O=C(NCc1cc2nc(N3CCOc4nc(C5CC5)ccc43)ccc2cn1)c1ccc2c(c1)S(=O)(=O)CCOC2 [Compound 843]
–	–	–	0.397	7.26	2.88	–	COCCN1CCc2ccc(-c3ccc4cnc(CNC(=O)c5ccc6c(c5)S(=O)(=O)CCOC6)cc4n3)nc2C1 [Compound 772]
–	–	–	0.0275	4.35	0.12	–	Cc1ccnc2c1CCN2c1ccc2cnc(CNC(=O)c3ccc4c(c3)S(=O)(=O)CCOC4)cc2n1 [Compound 743]
–	–	–	0.169	3.77	0.636	–	O=C(NCc1ncc2ccc(N3CCOc4cc(C5CC5)cnc43)cc2n1)c1ccc2c(c1)S(=O)(=O)CCOC2 [Compound 800]
–	–	–	0.0071	17.47	0.124	–	O=C(NCc1cc2nc(N3CCOc4cnc(C5CC5)cc43)ccc2cn1)c1ccc2c(c1)S(=O)(=O)CCOC2 [Compound 755]
0.0266	13.16	0.35	–	–	–	–	CC1Cc2ccc(-c3ccc4cnc(CNC(=O)c5ccc6c(c5)S(=O)(=O)CCOC6)cc4n3)nc2N(C)C1 (stereo not drawn) [Compound 612]
–	–	–	0.0235	12.08	0.284	–	O=C(NCc1cc2nc(N3CCOc4cc(C5CC5)cc(F)c43)ccc2cn1)c1ccc2c(c1)S(=O)(=O)CCOC2 [Compound 765]
–	–	–	0.0174	11.17	0.194	–	O=C(NCc1cc2nc(N3CCC(F)(F)c4cccnc43)ccc2cn1)c1ccc2c(c1)S(=O)(=O)CCOC2 [Compound 767]
–	–	–	0.0132	32.33	0.428	–	C[C@H]1COCc2ccc(C(=O)NCc3cc4nc(N5CCOc6cc(F)cnc65)ccc4cn3)cc2S1(=O)=O [Compound 738]
